# Source: ChEMBL document CHEMBL4616724, “Topoisomerase Inhibitors Addressing Fluoroquinolone Resistance in Gram-Negative Bacteria” (J Med Chem, 2020)
# Key:
# [1] = Inhibition of recombinant full-length C-terminal His6-tagged Escherichia coli DNA topoisomerase 4 subunit ParC/ParE using kinetoplast DNA as substrate preincubated for 30 mins followed by substrate addition and measured after 1 hr in presence of ATP by size exclusion chromatography
# [2] = Dose normalized AUC in rat at 10 mg/kg, po measured up to 24 hrs by LC-MS/MS analysis; type: ADME, organism-based; conditions: in vivo
# [3] = Dose normalized Cmax in rat at 10 mg/kg, po measured up to 24 hrs by LC-MS/MS analysis; type: ADME, organism-based; conditions: in vivo
# [4] = Tmax in rat at 10 mg/kg, po measured up to 24 hrs by LC-MS/MS analysis; type: ADME, organism-based; conditions: in vivo
# Escherichia coli [5] = assay: Bacteriostatic activity against Escherichia coli ATCC 25922 infected in mouse model of neutropenic thigh infection assessed as static dose compound administered subcutaneously 2 hrs post infection and measured after 24 hrs by serial dilution method; type: functional
# in vivo = conditions: mouse, po, 10 mg/kg
# Escherichia coli [6] = assay: Antibacterial activity against wild type Escherichia coli ATCC 25922 at pH 7.4 by CLSI-based broth microdilution assay; type: functional
# Pseudomonas aeruginosa [7] = assay: Antibacterial activity against wild type Pseudomonas aeruginosa PAO1 K767 by CLSI-based broth microdilution assay; type: functional
# [8] = Solubility of the compound in pH 7 PBS incubated for 24 hrs under gently shaking condition by UPLC/UV/CLND/MS analysis; type: physicochemical; conditions: PBS, pH 7
# [9] = n-Octanol-PBS buffer partition coefficient, log D of the compound at pH 7.4 after overnight incubation by LC/UV/qTOF analysis; type: physicochemical
# Klebsiella pneumoniae = assay: Antibacterial activity against wild type Klebsiella pneumoniae ATCC 43816 by CLSI-based broth microdilution assay; type: functional
# Pseudomonas aeruginosa [10] = assay: Antibacterial activity against Pseudomonas aeruginosa K1542/K767 harboring MexB/MexXY deletion mutant by CLSI-based broth microdilution assay; type: functional
# Pseudomonas aeruginosa [11] = assay: Antibacterial activity against Pseudomonas aeruginosa NB52023 harboring gyrA T83I mutant/ParC S87L mutant by CLSI-based broth microdilution assay; type: functional
# Escherichia coli [12] = assay: Antibacterial activity against Escherichia coli BW25113/JW0451-2 harboring AcrB deletion mutant by CLSI-based broth microdilution assay; type: functional
# [13] = Protein binding in CD1 mouse plasma at 10 uM incubated for 4 hrs under shaking condition by LC-MS/MS analysis; type: ADME, cell-free; conditions: read-out: PPB (converted)
# [14] = Protein binding in Sprague-Dawley rat plasma at 10 uM incubated for 4 hrs under shaking condition by LC-MS/MS analysis; type: ADME, cell-free; conditions: read-out: PPB (converted)
# [15] = Protein binding in pooled human plasma at 10 uM incubated for 4 hrs under shaking condition by LC-MS/MS analysis; type: ADME, cell-free; conditions: read-out: PPB (converted)
# [16] = molecular target: Voltage-gated inwardly rectifying potassium channel KCNH2 (Homo sapiens, UniProt Q12809); assay: Inhibition of human ERG expressed in CHOK1 cells by QPatch automated patch-clamp assay; type: cell-based, CHO-K1
# [17] = Efflux ratio of apparent permeability in human Caco2 cells at 10 uM after 2 hrs by LC-MS/MS analysis; type: ADME, cell-based; conditions: Caco-2
# [18] = Intrinsic clearance in rat liver microsomes at 1 uM in presence of NADPH and measured up to 30 mins by LC-MS/MS analysis; type: ADME, Microsome; conditions: read-out: CLH
# [19] = Intrinsic clearance in human liver microsomes at 1 uM in presence of NADPH and measured up to 30 mins by LC-MS/MS analysis; type: ADME, Microsome; conditions: read-out: CLH
# Escherichia coli [20] = assay: Antibacterial activity against wild type Escherichia coli ATCC 25922 at pH 5.8 by CLSI-based broth microdilution assay; type: functional
# Escherichia coli [21] = assay: Ratio of MIC for antibacterial activity against wild type Escherichia coli ATCC 25922 at pH 5.8 to MIC for antibacterial activity against wild type Escherichia coli ATCC 25922 at pH 7.4; type: functional
# [22] = Selectivity ratio of MIC for wild type Escherichia coli ATCC 25922 to MIC for Escherichia coli BW25113/JW0451-2 harboring AcrB deletion mutant; type: functional
# Sequence of Voltage-gated inwardly rectifying potassium channel KCNH2 (Q12809 whole entry): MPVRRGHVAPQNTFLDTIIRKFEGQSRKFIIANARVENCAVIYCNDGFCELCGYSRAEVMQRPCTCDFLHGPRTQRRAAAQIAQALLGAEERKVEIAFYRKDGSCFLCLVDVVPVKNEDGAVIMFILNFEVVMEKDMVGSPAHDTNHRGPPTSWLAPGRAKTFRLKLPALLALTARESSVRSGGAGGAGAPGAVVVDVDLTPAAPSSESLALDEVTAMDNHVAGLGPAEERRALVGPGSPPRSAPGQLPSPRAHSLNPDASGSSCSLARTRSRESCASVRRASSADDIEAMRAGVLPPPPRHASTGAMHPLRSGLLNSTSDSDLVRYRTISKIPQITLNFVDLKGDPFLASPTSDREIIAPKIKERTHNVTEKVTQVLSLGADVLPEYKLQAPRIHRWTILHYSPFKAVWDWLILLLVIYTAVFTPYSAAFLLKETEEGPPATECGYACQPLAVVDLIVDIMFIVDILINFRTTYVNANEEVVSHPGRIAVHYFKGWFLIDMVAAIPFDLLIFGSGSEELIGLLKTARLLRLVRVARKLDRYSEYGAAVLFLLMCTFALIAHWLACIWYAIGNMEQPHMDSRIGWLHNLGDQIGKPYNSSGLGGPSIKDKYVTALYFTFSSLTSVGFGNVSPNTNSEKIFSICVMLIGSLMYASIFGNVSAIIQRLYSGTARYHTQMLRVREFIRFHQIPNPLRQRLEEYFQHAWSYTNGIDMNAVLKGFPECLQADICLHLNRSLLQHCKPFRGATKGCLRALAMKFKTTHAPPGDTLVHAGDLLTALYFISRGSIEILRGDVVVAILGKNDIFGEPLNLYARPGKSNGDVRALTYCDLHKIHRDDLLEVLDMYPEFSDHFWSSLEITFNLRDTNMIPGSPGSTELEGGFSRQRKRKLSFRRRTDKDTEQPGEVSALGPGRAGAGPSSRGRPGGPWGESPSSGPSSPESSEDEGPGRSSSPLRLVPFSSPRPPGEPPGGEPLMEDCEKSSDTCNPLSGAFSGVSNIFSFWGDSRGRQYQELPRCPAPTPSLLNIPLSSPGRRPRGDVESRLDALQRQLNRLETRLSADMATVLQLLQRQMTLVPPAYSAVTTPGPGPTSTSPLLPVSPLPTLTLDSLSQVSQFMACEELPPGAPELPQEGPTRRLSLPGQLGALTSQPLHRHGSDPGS
compound,measurement,setting,value
O=C(O)c1cn(C2CC2)c2cc(N3CCNCC3)c(F)cc2c1=O [CIPROFLOXACIN],IC50,[1],2710 nM
same,AUC/dose,[2],0.29 µM·h/mg/kg
same,Cmax/dose,[3],0.14 µM/mg/kg
same,Tmax,[4],30 min
same,Activity,Escherichia coli [5],6.4 mg/kg/day
same,Tmax at 24 h,in vivo,15 min
Cc1c(N2CC[C@@H]([C@H](C)N)C2)c(F)cc2c(CN)cc(=O)n(C3CC3)c12,MIC,Escherichia coli [6],1 µg/mL
same,MIC,Pseudomonas aeruginosa [7],2 µg/mL
same,solubility at 24 h,[8],> 555 µg/mL
same,logD,[9],-0.29
same,MIC,Klebsiella pneumoniae,4 µg/mL
same,MIC,Pseudomonas aeruginosa [10],0.5 µg/mL
same,MIC,Pseudomonas aeruginosa [11],2 µg/mL
same,MIC,Escherichia coli [12],0.06 µg/mL
same,"fraction unbound at 4 h, 10 µM",[13],0.44
same,"fraction unbound at 4 h, 10 µM",[14],0.82
same,"fraction unbound at 4 h, 10 µM",[15],0.83
same,IC50,[16],> 300000 nM
same,"efflux ratio at 2 h, 10 µM",[17],18
same,microsomal CLint at 1 µM,[18],< 7.7 µL/min/mg
same,microsomal CLint at 1 µM,[19],14 µL/min/mg
same,MIC,Escherichia coli [20],> 32 µg/mL
same,Ratio,Escherichia coli [21],>=64
same,Selectivity ratio,[22],16
